The values that follow come from patent US12161694B2, “Methods and compositions for regulating innate lymphoid cell inflammatory responses” (The Broad Institute, Inc., priority 2017, dated 2024).

“Also recorded” adds a separate entry of the source. Where no end group is shown, it is not given here.

This assay concerns IL-5 and IL-13 in lung and BALF. In words: In vivo ILC activation (intranasal), lung analysis: Il5, Il13, Il17rb mRNA in lung mononuclear cells (qPCR), IL-5/IL-13 in BALF (LegendPlex). Set-up: species or system mouse. The procedure: Mice and in vivo ILC activation. C57Bl/6J mice were purchased from the Jackson Laboratory. Nmur1-LacZ reporter mice with a LacZ cassette knocked into the Nmur1 locus were rederived from Nmur1^tm1.1(KOMP)Vleg sperm obtained from the trans-NIH Knock-Out Mouse Project (KOMP) Repository. Mice were housed under specific-pathogen-free conditions. For experiments, mice were matched for sex and age, and most mice were 6-10 weeks old. […] The total administered volume was 20 μl for all conditions. Mice were randomly assigned to treatment groups after matching for sex and age. […] Mice were treated intranasally with 10 μg HDM on day 0, 7, 8, and 9, prior to sacrifice on day 10. All experiments were conducted in accordance with animal protocols approved by the Harvard Medical Area Standing Committee on Animals or BWH IACUC.
Lung analysis. Mice were sacrificed and perfused with cold PBS. Where indicated, after perfusion, broncho alveolar lavage (BAL) was obtained by injecting 1.5 ml cold PBS into the lungs via a secured tracheal cannula. BALF was centrifuged, and the supernatant was used for analyzing cytokine levels and the cell pellet was resuspended, counted, and used for flow cytometry. Following BAL, lung lobes were dissected. The post-caval lobe was fixed in buffered formalin for histological analysis. Single cell suspensions of the remaining lung parenchymal tissue were prepared with the GentleMACS lung dissociation kit (Miltenyi Biotec) according to the manufacturer's instructions. Where indicated, cells were diluted in 10% Trypan Blue and viable cells counted using a hemocytometer.
Quantitative real-time PCR. RNA was isolated using RNeasy Plus Mini Kit (Qiagen) and reverse transcribed to cDNA with iScript cDNA Synthesis Kit (Bio-Rad). Gene expression was analyzed by quantitative real-time PCR on a ViiA7 System (Thermo Fisher Scientific) using TaqMan Fast Advanced Master Mix (Thermo Fisher Scientific) with the following primer/probe sets: IL-5 (Mm00439646_m1), IL-13 (Mm00434204_m1), IL-17RB (Mm00444709_m1), Nmur1 (Mm04207994 m1), Nmur2 (Mm00600704_m1), and β-Actin (Applied Biosystems). Expression values were calculated relative to β-Actin detected in the same sample by duplex qPCR.
Cytokine quantification. Cytokine concentrations in BAL fluid, lung and supernatant of in vitro ILC cultures were analyzed by the LegendPlex Mouse Th Cytokine Panel (13-plex) (BioLegend) according to the manufacturer's instructions and analyzed on a FACS Calibur (BD Biosciences).
Mice and in vivo ILC activation. C57Bl/6J mice were purchased from the Jackson Laboratory. Nmur1-LacZ reporter mice with a LacZ cassette knocked into the Nmur1 locus were rederived from Nmur1^tm1.1(KOMP)Vleg sperm obtained from the trans-NIH Knock-Out Mouse Project (KOMP) Repository. NMU-deficient mice (NMU-KO) were rederived from B6.129S2-Nmu<tm1Mko> embryos from the RIKEN BioResource Center. For experiments with Nmur1-LacZ (Nmur1-KO) and NMU-KO mice, littermates that were either homozygous or heterozygous for the wild type allele were used as controls. Mice were housed under specific-pathogen-free conditions. For experiments, mice were matched for sex and age, and most mice were 6-10 weeks old. […] The total administered volume was 20 μl for all conditions. Mice were randomly assigned to treatment groups after matching for sex and age. […]
Lung analysis. […] BALF was centrifuged, and the supernatant was used for analyzing cytokine levels and the cell pellet was resuspended, counted, and used for flow cytometry. […]

For the substance “Neuromedin U (FRVDEEFQSPFASQSRGYFLFRPRN-NH2; listed as Homo sapiens) [NMU, neuropeptide ligand of Nmur1 (US Biological)]”, the “IL-33-induced lung inflammation with NMU” value (250 ng IL-33 and 10 μg NMU (FIG. 11)) is “little impact; also recorded: does not significantly amplify”. Further, the “allergic lung inflammation induced by the substance alone” value (NMU 20 μg intranasally for 3 consecutive days, no alarmin) is on record as “little effect; also recorded: minimal”. Also, the “IL-5 protein in BALF” value (NMU alone 20 μg intranasally for 3 days, LegendPlex) is “only trace quantities”. For the same substance, the “IL-25-induced allergic airway inflammation with NMU” value (NMU co-administered with IL-25) was “dramatically enhanced; also recorded: amplifies”. Besides, the “Il5 and Il13 mRNA expression in lung (lung mononuclear cells)” value (intranasal daily for 3 days (500 ng IL-25, 20 μg NMU), qPCR) is “did not cause a significant increase”.
